Measurements taken from ChEMBL document CHEMBL2380304, “Synthesis of 2-methoxybenzoylhydrazone and evaluation of their antileishmanial activity” (Bioorg Med Chem Lett, 2013).

Tested on: Leishmania major
Experiment: Antileishmanial activity against promastigotes of Leishmania major after 72 hrs by Neubauer counting chamber-based microscopic analysis
Assay type: functional, organism-based

SMILES | IC50
COc1ccccc1C(=O)N/N=C/c1ccccn1 | 60 µM
COc1ccccc1C(=O)N/N=C/c1ccncc1 | 75.9 µM
COC(=O)c1ccc(/C=N/NC(=O)c2ccccc2OC)cc1 | 15.7 µM
COc1ccccc1C(=O)N/N=C/c1ccc(Br)c(F)c1 | 77.4 µM
COc1ccccc1C(=O)N/N=C/c1cc(O)c(O)c(O)c1 | 31.5 µM
COc1ccccc1C(=O)N/N=C/c1ccc(O)c(O)c1 | 3.29 µM
COc1ccc(/C=N/NC(=O)c2ccccc2OC)cc1Br | 7.64 µM
COc1ccc(/C=N/NC(=O)c2ccccc2OC)cc1OC | 13.2 µM
COc1ccc(/C=N/NC(=O)c2ccccc2OC)cc1 | 40.1 µM
COc1ccccc1C(=O)N/N=C/c1cccnc1 | 1.95 µM
COc1ccccc1C(=O)N/N=C/c1cccs1 | 2.49 µM
COc1ccccc1C(=O)N/N=C/c1ccc([N+](=O)[O-])cc1 | 31.6 µM
COc1ccccc1C(=O)N/N=C/c1ccc(Cl)cc1 | 68.5 µM
COc1ccccc1C(=O)N/N=C/c1cccc(O)c1O | 68 µM
COc1ccccc1C(=O)N/N=C/c1cc(O)ccc1O | 34.9 µM
COc1ccccc1C(=O)N/N=C/c1ccc(O)cc1O | 88.6 µM
COc1ccccc1C(=O)N/N=C/c1ccc(O)cc1 | 57.4 µM
COc1ccc(/C=N/NC(=O)c2ccccc2OC)c(O)c1 | 13.2 µM
COc1ccc(/C=N/NC(=O)c2ccccc2OC)cc1O | 45.7 µM
COc1ccccc1C(=O)N/N=C/c1ccc(OC)c(O)c1I | 63.4 µM
COc1cc(/C=N/NC(=O)c2ccccc2OC)cc(OC)c1 | 53.1 µM
N=C(N)c1ccc(OCCCCCOc2ccc(C(=N)N)cc2)cc1 [PENTAMIDINE] | 5.09 µM
